According to patent publication US9321718B2 (CHROMA THERAPEUTICS LTD., priority 2010, dated 2016):

How the values were obtained:
[1] = target: T1, human recombinant his-tagged HSP90α (Homo sapiens, UniProt P07900); test: HSP90 enzyme assay (HTRF, competition with biotinylated Geldanamycin); format: binding; settings: IC50 range; read-out: Enzyme Assay
T1 construct: purchased Prospec Technogene #HSP90
How it was run: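 HTRF competition: compounds (5000 to 0.3 nM, 0.5% DMSO) displace 40 nM biotinylated geldanamycin from 40 nM his-tagged HSP90α. Binding was read via Eu-cryptate anti-his/streptavidin-XL FRET after 20 h at room temperature in Hepes pH 7.3 buffer. IC50 was fitted against controls.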

[2] = system: TNFα release from LPS stimulated THP-1 (hCE-1 +ve) cells; test: LPS-stimulation of THP-1 cells (TNF-α release); format: cell-based, human; settings: Homo sapiens, THP-1; IC50 range; TNF-α after LPS 1 μg/ml, 6 hours; read-out: THP-1 Assay
Protocol: THP-1 cells are plated in […] at a density of 4×10^4 cells/well in V-bottomed 96 well tissue culture treated plates and incubated at 37° C. in 5% CO2 for 16 hours. 2 Hours after the addition of the inhibitor in 100 μl of tissue culture media, the cells are stimulated with LPS (E. Coli strain 005:B5, Sigma) at a final concentration of 1 μg/ml and incubated at 37° C. in 5% CO2 for 6 hours. TNF-α levels are measured from cell-free supernatants by sandwich ELISA (R&D Systems #QTA00B).

[3] = system: TNF-α levels in LPS-stimulated human whole blood; test: LPS-stimulation of human whole blood (TNF-α levels); format: cell-based; settings: Homo sapiens; IC50 range; TNF-α after LPS 100 ng/ml, 6 hours
Protocol: Whole blood is taken by venous puncture using heparinised vacutainers (Becton Dickinson) and diluted in an equal volume of RPMI1640 tissue culture media (Sigma). 100 μl is then plated in V-bottomed 96 well tissue culture treated plates. 2 Hours after the addition of the inhibitor in 100 μl of RPMI1640 media, the blood is stimulated with LPS (E. Coli strain 005:B5, Sigma) at a final concentration of 100 ng/ml and incubated at 37° C. in 5% CO2 for 6 hours. TNF-α levels are measured from cell-free supernatants by sandwich ELISA (R&D Systems #QTA00B).

| IC50 [1] [nM] | IC50 [2] [nM] | IC50 [3] [nM] | SMILES |
| --- | --- | --- | --- |
| < 100 | 100 to 1000 | 100 to 1000 | CC(C)c1cc(C(=O)N2CCC(N[C@@H](C)C(=O)OC3CCCC3)CC2)c(O)cc1O [Example 5, cyclopentyl N-(1-{[2,4-dihydroxy-5-(propan-2-yl)phenyl]carbonyl}piperidin-4-yl)-L-alaninate] |
| < 100 | 100 to 1000 | 100 to 1000 | CC(C)c1cc(C(=O)N2CCC(CN[C@@H](COC(C)(C)C)C(=O)OC3CCCC3)CC2)c(O)cc1O [Example 34, cyclopentyl O-tert-butyl-N-[(1-{[2,4-dihydroxy-5-(propan-2-yl)phenyl]carbonyl}piperidin-4-yl)methyl]-L-serinate] |
| < 100 | < 100 | < 100 | CC(C)c1cc(C(=O)N2CCC(CN[C@@H](C)C(=O)OC3CCCC3)CC2)c(O)cc1O [Example 22, cyclopentyl N-[(1-{[2,4-dihydroxy-5-(propan-2-yl)phenyl]carbonyl}piperidin-4-yl)methyl]-L-alaninate] |
| < 100 | > 1000 | > 1000 | CC(C)C[C@H](NC1CCN(C(=O)c2cc(C(C)C)c(O)cc2O)C1)C(=O)OC1CCCC1 (stereo partly drawn) [Example 20, cyclopentyl N-(1-{[2,4-dihydroxy-5-(propan-2-yl)phenyl]carbonyl}pyrrolidin-3-yl)-L-leucinate] |
| 100 to 1000 | > 1000 | > 1000 | CC(C)C[C@H](NC[C@H]1CCCN1C(=O)c1cc(C(C)C)c(O)cc1O)C(=O)OC1CCCC1 [Example 74, cyclopentyl N-{[(2R)-1-{[2,4-dihydroxy-5-(propan-2-yl)phenyl]carbonyl}pyrrolidin-2-yl]methyl}-L-leucinate] |
| < 100 | 100 to 1000 | < 100 | CC(C)c1cc(C(=O)N2CCC(N[C@@H](CC3CCCCC3)C(=O)OC3CCCC3)CC2)c(O)cc1O [Example 13, cyclopentyl 3-cyclohexyl-N-(1-{[2,4-dihydroxy-5-(propan-2-yl)phenyl]carbonyl}piperidin-4-yl)-L-alaninate] |
| < 100 | 100 to 1000 | > 1000 | CCCC[C@H](NC1CCN(C(=O)c2cc(C(C)C)c(O)cc2O)CC1)C(=O)OC1CCCC1 [Example 10, cyclopentyl N-(1-{[2,4-dihydroxy-5-(propan-2-yl)phenyl]carbonyl}piperidin-4-yl)-L-norleucinate] |
| < 100 | 100 to 1000 | 100 to 1000 | CC(C)c1cc(C(=O)N2CCC(NC(C)(C)C(=O)OC3CCCC3)CC2)c(O)cc1O [Example 2, cyclopentyl N-(1-{[2,4-dihydroxy-5-(propan-2-yl)phenyl]carbonyl}piperidin-4-yl)-2-methylalaninate] |
| < 100 | 100 to 1000 | 100 to 1000 | CC(C)c1cc(C(=O)N2CCC(CN[C@@H](Cc3ccccc3)C(=O)OC3CCCC3)CC2)c(O)cc1O [Example 23, cyclopentyl N-[(1-{[2,4-dihydroxy-5-(propan-2-yl)phenyl]carbonyl}piperidin-4-yl)methyl]-L-phenylalaninate] |
| < 100 | > 1000 | > 1000 | CC(C)C[C@@H](NC1CCN(C(=O)c2cc(C(C)C)c(O)cc2O)C1)C(=O)OC1CCCC1 (stereo partly drawn) [Example 76, cyclopentyl N-(1-{[2,4-dihydroxy-5-(propan-2-yl)phenyl]carbonyl}pyrrolidin-3-yl)-D-leucinate] |
| < 100 | < 100 | 100 to 1000 | CC(C)c1cc(C(=O)N2CCC(CCNC(C)(C)C(=O)OC3CCCC3)CC2)c(O)cc1O [Example 44, cyclopentyl N-[2-(1-{[2,4-dihydroxy-5-(propan-2-yl)phenyl]carbonyl}piperidin-4-yl)ethyl]-2-methylalaninate] |

Second part, the compound before the results:

| SMILES | IC50 [1] [nM] | IC50 [2] [nM] | IC50 [3] [nM] |
| --- | --- | --- | --- |
| CC(C)c1cc(C(=O)N2Cc3ccc(CNC4(C(=O)OC5CCCC5)CCCC4)cc3C2)c(O)cc1O [Example 60, cyclopentyl 1-{[(2-{[2,4-dihydroxy-5-(propan-2-yl)phenyl]carbonyl}-2,3-dihydro-1H-isoindol-5-yl)methyl]amino}cyclopentanecarboxylate] | < 100 | < 100 | 100 to 1000 |
| CC(C)C[C@H](NCCCc1ccc2c(c1)CN(C(=O)c1cc(C(C)C)c(O)cc1O)C2)C(=O)OC1CCCC1 [Example 64, cyclopentyl N-[3-(2-{[2,4-dihydroxy-5-(propan-2-yl)phenyl]carbonyl}-2,3-dihydro-1H-isoindol-5-yl)propyl]-L-leucinate] | < 100 | < 100 | 100 to 1000 |
| CC(C)C[C@H](NC[C@@H]1CCCN1C(=O)c1cc(C(C)C)c(O)cc1O)C(=O)OC1CCCC1 [Example 75, cyclopentyl N-{[(2S)-1-{[2,4-dihydroxy-5-(propan-2-yl)phenyl]carbonyl}pyrrolidin-2-yl]methyl}-L-leucinate] | > 1000 | > 1000 | > 1000 |
| CC(C)c1cc(C(=O)N(C)Cc2ccc(CN[C@H](C(=O)OC3CCCC3)c3ccccc3)cc2)c(O)cc1O [Example 71, cyclopentyl (2S)-[(4-{[{[2,4-dihydroxy-5-(propan-2-yl)phenyl]carbonyl}(methyl)amino]methyl}benzyl)amino](phenyl)ethanoate] | 100 to 1000 | 100 to 1000 | 100 to 1000 |
| CC(C)c1cc(C(=O)N2Cc3ccc(CNC(C)(C)C(=O)OC4CCCC4)cc3C2)c(O)cc1O [Example 55, cyclopentyl N-[(2-{[2,4-dihydroxy-5-(propan-2-yl)phenyl]carbonyl}-2,3-dihydro-1H-isoindol-5-yl)methyl]-2-methylalaninate] | < 100 | 100 to 1000 | 100 to 1000 |
| CC(C)c1cc(C(=O)N(C)Cc2ccc(CNC(C)(C)C(=O)OC3CCCC3)cc2)c(O)cc1O [Example 72, cyclopentyl N-(4-{[{[2,4-dihydroxy-5-(propan-2-yl)phenyl]carbonyl}(methyl)amino]methyl}benzyl)-2-methylalaninate] | < 100 | 100 to 1000 | 100 to 1000 |
| CC(C)c1cc(C(=O)N(C)Cc2cccc(CN[C@H](C(=O)OC3CCCC3)c3ccccc3)c2)c(O)cc1O [Example 69, cyclopentyl (2S)-[(3-{[{[2,4-dihydroxy-5-(propan-2-yl)phenyl]carbonyl}(methyl)amino]methyl}benzyl)amino](phenyl)ethanoate] | 100 to 1000 | > 1000 | > 1000 |
| CC(C)c1cc(C(=O)N(C)Cc2cccc(CNC(C)(C)C(=O)OC3CCCC3)c2)c(O)cc1O [Example 67, cyclopentyl N-(3-{[{[2,4-dihydroxy-5-(propan-2-yl)phenyl]carbonyl}(methyl)amino]methyl}benzyl)-2-methylalaninate] | < 100 | 100 to 1000 | 100 to 1000 |
| CC(C)c1cc(C(=O)N2Cc3ccc(CN[C@@H](C)C(=O)OC(C)(C)C)cc3C2)c(O)cc1O [Example 56, tert-butyl N-[(2-{[2,4-dihydroxy-5-(propan-2-yl)phenyl]carbonyl}-2,3-dihydro-1H-isoindol-5-yl)methyl]-L-alaninate] | 100 to 1000 | > 1000 | > 1000 |
| CC(C)C[C@H](NCc1ccc(CN(C)C(=O)c2cc(C(C)C)c(O)cc2O)cc1)C(=O)OC1CCCC1 [Example 70, cyclopentyl N-(4-{[{[2,4-dihydroxy-5-(propan-2-yl)phenyl]carbonyl}(methyl)amino]methyl}benzyl)-L-leucinate] | < 100 | 100 to 1000 | 100 to 1000 |
| CC(C)C[C@H](NCCc1ccc2c(c1)CN(C(=O)c1cc(C(C)C)c(O)cc1O)C2)C(=O)OC(C)(C)C [Example 62, tert-butyl N-[2-(2-{[2,4-dihydroxy-5-(propan-2-yl)phenyl]carbonyl}-2,3-dihydro-1H-isoindol-5-yl)ethyl]-L-leucinate] | < 100 | 100 to 1000 | > 1000 |
| CC(C)c1cc(C(=O)N(C)Cc2cccc(CNC3(C(=O)OC4CCCC4)CCCC3)c2)c(O)cc1O [Example 68, cyclopentyl 1-[(3-{[{[2,4-dihydroxy-5-(propan-2-yl)phenyl]carbonyl}(methyl)amino]methyl}benzyl)amino]cyclopentanecarboxylate] | < 100 | 100 to 1000 | > 1000 |
| CC(C)C[C@H](NCc1ccc2c(c1)CN(C(=O)c1cc(C(C)C)c(O)cc1O)C2)C(=O)OC1CCCC1 [Example 54, cyclopentyl N-[(2-{[2,4-dihydroxy-5-(propan-2-yl)phenyl]carbonyl}-2,3-dihydro-1H-isoindol-5-yl)methyl]-L-leucinate] | < 100 | 100 to 1000 | 100 to 1000 |
| CC(C)c1cc(C(=O)N2Cc3ccc(CCCNC4(C(=O)OC5CCCC5)CCCC4)cc3C2)c(O)cc1O [Example 65, cyclopentyl 1-{[3-(2-{[2,4-dihydroxy-5-(propan-2-yl)phenyl]carbonyl}-2,3-dihydro-1H-isoindol-5-yl)propyl]amino}cyclopentanecarboxylate] | < 100 | 100 to 1000 | 100 to 1000 |
